As to `COc1cccc([C@H]2O[C@H](CC(=O)NCc3ccc(C(=O)O)cc3)C(=O)N(CC(C)(C)CO)c3ccc(Cl)cc32)c1OC` [Example 75, 4-[[(3R,5S)-7-Chloro-5-(2,3-dimethoxyphenyl)-1-(3-hydroxy-2,2-dimethylpropyl)-2-oxo-1,2,3,5-tetrahydro-4,1-benzoxazepin-3-yl]acetyl]aminomethylbenzoic acid], the melting point (usually the temperature of the solid-liquid transition) lay within 143 to 144 °C. The figure for `COc1cccc([C@H]2O[C@H](CC(=O)NCCc3ccc(OC(C)(C)C(=O)O)cc3)C(=O)N(CC(C)(C)CO)c3ccc(Cl)cc32)c1OC` [Example 77, α-[4-[2-[[(3R,5S)-7-Chloro-5-(2,3-dimethoxyphenyl)-1-(3-hydroxy-2,2-dimethylpropyl)-2-oxo-1,2,3,5-tetrahydro-4,1-benzoxazepin-3-yl]acetyl]aminoethyl]phenyloxy]isobutanoic acid] is 209 to 211 °C; for `COc1cccc([C@H]2O[C@H](CC(=O)Nc3ccc4oc(C(=O)O)cc4c3)C(=O)N(CC(C)(C)CO)c3ccc(Cl)cc32)c1OC` [Example 81, 5-[[[(3R,5S)-7-Chloro-5-(2,3-dimethoxyphenyl)-1-(3-hydroxy-2,2-dimethylpropyl)-2-oxo-1,2,3,5-tetrahydro-4,1-benzoxazepin-3-yl]acetyl]amino]benzofuran-2-carboxylic acid] it is 171 to 172 °C.

Molecule `COc1cccc([C@H]2O[C@H](CC(=O)Nc3ccc(C(=O)O)o3)C(=O)N(CC(C)(C)CO)c3ccc(Cl)cc32)c1OC` [Example 94, 5-[[(3R,5S)-7-Chloro-5-(2,3-dimethoxyphenyl)-1-(3-hydroxy-2,2-dimethylpropyl)-2-oxo-1,2,3,5-tetrahydro-4,1-benzoxazepin-3-yl]acetyl]amino-2-furancarboxylic acid] returned a melting point of 155 to 158 °C. Next, `COc1cccc([C@H]2O[C@H](CC(=O)NCCCOc3ccc(CC(=O)O)cc3)C(=O)N(CC(C)(C)CO)c3ccc(Cl)cc32)c1OC` [Example 96, 4-[3-[[(3R,5S)-7-Chloro-5-(2,3-dimethoxyphenyl)-1-(3-hydroxy-2,2-dimethylpropyl)-2-oxo-1,2,3,5-tetrahydro-4,1-benzoxazepin-3-yl]acetyl]aminopropyloxy]phenylacetic acid]: 125 to 128 °C; `COc1cccc([C@H]2O[C@H](CC(=O)NCCCOc3ccc(CC(=O)O)cc3)C(=O)N(CC(C)(C)COC(C)=O)c3ccc(Cl)cc32)c1OC` [Example 97, 4-[3-[[(3R,5S)-1-(3-Acetoxy-2,2-dimethylpropyl)-7-chloro-5-(2,3-dimethoxyphenyl)-2-oxo-1,2,3,5-tetrahydro-4,1-benzoxazepin-3-yl]acetyl]aminopropyloxy]phenylacetic acid]: 163 to 164 °C; `COc1cccc([C@H]2O[C@H](CC(=O)NCCCOc3ccc(C(=O)O)cc3)C(=O)N(CC(C)(C)CO)c3ccc(Cl)cc32)c1OC` [Example 98]: 138 to 139 °C. Molecule `COc1cccc([C@H]2O[C@H](CC(=O)NCCCOc3cccc(C(=O)O)c3)C(=O)N(CC(C)(C)CO)c3ccc(Cl)cc32)c1OC` [Example 100, 3-[3-[[(3R,5S)-7-Chloro-5-(2,3-dimethoxyphenyl)-1-(3-hydroxy-2,2-dimethylpropyl)-2-oxo-1,2,3,5-tetrahydro-4,1-benzoxazepin-3-yl]acetyl]aminopropyloxy]benzoic acid] came in with a melting point of 132 to 134 °C. The figure for `COc1ccc(C(=O)O)cc1NC(=O)C[C@H]1O[C@H](c2cccc(OC)c2OC)c2cc(Cl)ccc2N(CC(C)(C)CO)C1=O` [Example 102, 3-[[(3R,5S)-7-Chloro-5-(2,3-dimethoxyphenyl)-1-(3-hydroxy-2,2-dimethylpropyl)-2-oxo-1,2,3,5-tetrahydro-4,1-benzoxazepin-3-yl]acetyl]amino-4-methoxybenzoic acid] is 171 to 173 °C; for `COc1cccc([C@H]2O[C@H](CC(=O)Nc3cc(C(=O)O)ccc3F)C(=O)N(CC(C)(C)CO)c3ccc(Cl)cc32)c1OC` [Example 106, 3-[[[(3R,5S)-7-Chloro-5-(2,3-dimethoxyphenyl)-1-(3-hydroxy-2,2-dimethylpropyl)-2-oxo-1,2,3,5-tetrahydro-4,1-benzoxazepin-3-yl]acetyl]amino]-4-fluorobenzoic acid] it is 163 to 166 °C; for `COc1cccc([C@H]2O[C@H](CC(=O)Nc3cc(C(=O)O)ccc3F)C(=O)N(CC(C)(C)COC(C)=O)c3ccc(Cl)cc32)c1OC` [Example 107, 3-[[[(3R,5S)-1-(3-Acetoxy-2,2-dimethylpropyl)-7-chloro-5-(2,3-dimethoxyphenyl)-2-oxo-1,2,3,5-tetrahydro-4,1-benzoxazepin-3-yl]acetyl]amino]-4-fluorobenzoic acid] it is 146 to 149 °C. Next, `COc1cccc([C@H]2O[C@H](CC(=O)Nc3cc(CCCCC(=O)O)ccc3F)C(=O)N(CC(C)(C)CO)c3ccc(Cl)cc32)c1OC` [Example 108, 5-[3-[[[(3R,5S)-7-Chloro-5-(2,3-dimethoxyphenyl)-1-(3-hydroxy-2,2-dimethylpropyl)-2-oxo-1,2,3,5-tetrahydro-4,1-benzoxazepin-3-yl]acetyl]amino]-4-fluorophenyl]pentanoic acid]: 115 to 118 °C. Next, `COc1ccc(CC(=O)O)cc1NC(=O)C[C@H]1O[C@H](c2cccc(OC)c2OC)c2cc(Cl)ccc2N(CC(C)(C)CO)C1=O` [Example 109]: 215 to 216 °C; `COc1ccc(CCCC(=O)O)cc1NC(=O)C[C@H]1O[C@H](c2cccc(OC)c2OC)c2cc(Cl)ccc2N(CC(C)(C)CO)C1=O` [Example 110, 4-[3-[[[(3R,5S)-7-Chloro-5-(2,3-dimethoxyphenyl)-1-(3-hydroxy-2,2-dimethylpropyl)-2-oxo-1,2,3,5-tetrahydro-4,1-benzoxazepin-3-yl]acetyl]amino]-4-methoxyphenyl]butanoic acid]: 119 to 121 °C; `COc1cccc([C@H]2O[C@H](CC(=O)Nc3cccc(CCCC(=O)O)c3)C(=O)N(CC(C)(C)CO)c3ccc(Cl)cc32)c1OC` [Example 111, 4-[3-[[[(3R,5S)-7-Chloro-5-(2,3-dimethoxyphenyl)-1-(3-hydroxy-2,2-dimethylpropyl)-2-oxo-1,2,3,5-tetrahydro-4,1-benzoxazepin-3-yl]acetyl]amino]phenyl]butanoic acid]: 119 to 122 °C. `COc1cccc([C@H]2O[C@H](CC(=O)Nc3cc4c(c(C(=O)O)c3)CCCC4)C(=O)N(CC(C)(C)CO)c3ccc(Cl)cc32)c1OC` [Example 112, 3-[[[(3R,5S)-7-Chloro-5-(2,3-dimethoxyphenyl)-1-(3-hydroxy-2,2-dimethylpropyl)-2-oxo-1,2,3,5-tetrahydro-4,1-benzoxazepin-3-yl]acetyl]amino]-5,6,7,8-tetrahydro-1-naphthoic acid] had a melting point of 178 to 179 °C. In the case of `COc1cccc([C@@H]2O[C@@H](CC(=O)NCCc3occc3C(=O)O)C(=O)N(CC(C)(C)CO)c3ccc(Cl)cc32)c1OC` [Example 119, 2-[2-[[[(3S,5R)-7-Chloro-5-(2,3-dimethoxyphenyl)-1-(3-hydroxy-2,2-dimethylpropyl)-2-oxo-1,2,3,5-tetrahydro-4,1-benzoxazepin-3-yl]acetyl]amino]ethyl]furan-3-carboxylic acid], the melting point lay within 123 to 126 °C. In the case of `COc1cccc([C@@H]2O[C@@H](CC(=O)Nc3cccc(CCC(=O)O)c3)C(=O)N(CC(C)(C)CO)c3ccc(Cl)cc32)c1OC` [Example 120, 3-[3-[[(3S,5R)-7-Chloro-5-(2,3-dimethoxyphenyl)-1-(3-hydroxy-2,2-dimethylpropyl)-2-oxo-1,2,3,5-tetrahydro-4,1-benzoxazepin-3-yl]acetyl]aminophenyl]propionic Acid], the melting point is 137 to 139 °C. The figure for `COc1cccc([C@@H]2O[C@@H](CC(=O)Nc3cc(CCC(=O)O)ccc3F)C(=O)N(CC(C)(C)CO)c3ccc(Cl)cc32)c1OC` [Example 121, 3-[3-[[[(3S,5R)-7-Chloro-5-(2,3-dimethoxyphenyl)-1-(3-hydroxy-2,2-dimethylpropyl)-2-oxo-1,2,3,5-tetrahydro-4,1-benzoxazepin-3-yl]acetyl]amino]-4-fluorophenyl]propionic Acid] is 151 to 153 °C; for `COc1cccc([C@H]2O[C@H](CC(=O)Nc3ccc(OCCCc4ccccc4)c(CCC(=O)O)c3)C(=O)N(CC(C)(C)CO)c3ccc(Cl)cc32)c1OC` [Example 124, 3-[5-[[[(3R,5S)-7-Chloro-5-(2,3-dimethoxyphenyl)-1-(3-hydroxy-2,2-dimethylpropyl)-2-oxo-1,2,3,5-tetrahydro-4,1-benzoxazepin-3-yl]acetyl]amino]-2-(3-phenylpropyloxy)phenyl]propionic Acid] it is 147 to 149 °C.

The molecule `COc1cccc([C@H]2O[C@H](CC(=O)Nc3cc(CCC(=O)O)ccc3OCCCc3ccccc3)C(=O)N(CC(C)(C)CO)c3ccc(Cl)cc32)c1OC` [Example 125, 3-[3-[[[(3R,5S)-7-Chloro-5-(2,3-dimethoxyphenyl)-1-(3-hydroxy-2,2-dimethylpropyl)-2-oxo-1,2,3,5-tetrahydro-4,1-benzoxazepin-3-yl]acetyl]amino]-4-(3-phenylpropyloxy)phenyl]propionic Acid] yielded a melting point of 162 to 165 °C. Next, `COc1cccc([C@H]2O[C@H](CC(=O)Nc3cccc4c(C(=O)O)cccc34)C(=O)N(CC(C)(C)CO)c3ccc(Cl)cc32)c1OC` [Example 129, 5-[[2-[(3R,5S)-7-Chloro-5-(2,3-dimethoxyphenyl)-1-(3-hydroxy-2,2-dimethylpropyl)-2-oxo-1,2,3,5-tetrahydro-4,1-benzoxazepin-3-yl]acetyl]amino]-1-naphthoic acid]: 171 to 174 °C; `COc1cccc([C@H]2O[C@H](CC(=O)Nc3ccc(OC(F)(F)C(=O)O)cc3)C(=O)N(CC(C)(C)CO)c3ccc(Cl)cc32)c1OC` [Example 132, 2-[4-[[[(3R,5S)-7-Chloro-5-(2,3-dimethoxyphenyl)-1-(3-hydroxy-2,2-dimethylpropyl)-2-oxo-1,2,3,5-tetrahydro-4,1-benzoxazepin-3-yl]acetyl]amino]phenyloxy]-2,2-difluoroacetic acid]: 149 to 150 °C.

(Values after patent US20030078251A1, “Benzoxazepinones and their use as squalene synthase inhibitors” (priority 2000, published 2003).)
